Reference: publication PMC4876372 (Scientific Reports, 2016)
Like-named read-outs stand apart in the source and are kept apart here.

How the values were obtained:
[1] = tested on: PANC-1, MIA PaCa-2, A431, Jurkat, MG-63, NIH3T3 and NIH3T3/KRAS cells; format: cell-based; conditions: 72 or 96 h, WST-8
Experimental: (§1) Human cancer cell lines HeLa (cervical cancer), MIA PaCa-2 (pancreatic cancer), A431 (epidermoid carcinoma), and human embryonic kidney derived cell line HEK293T were cultured in Dulbecco’s Modified Eagle’s Medium (DMEM; Invitrogen) containing 10% fetal bovine serum (FBS), penicillin G (50 units/mL) and streptomycin (50 µg/mL). Human cancer cell lines Panc-1 (pancreatic cancer) and Jurkat (T cell lymphoma) were cultured in RPMI (Gibco) containing 10% FBS, penicillin G (50 units/mL) and streptomycin (50 µg/mL). Human osteosarcoma cell line MG-63, mouse embryonic fibroblast NIH3T3 cells and its transformant NIH3T3/KRAS cells1 were cultured in DMEM (Sigma-Aldrich) containing 10% calf serum, glutamine (0.3 g/L), penicillin G (50 units/mL), and streptomycin (50 µg/mL). All cell lines were incubated at 37 °C in a humidified atmosphere containing 5% CO2.
The cells were seeded in 96-well plates, cultured overnight, and treated with test compounds for the indicated time. Subsequently, cell viability was measured by the WST-8 assay, using Cell Count Reagent SF (Nacalai Tesque) according to the manufacturer ’s instructions, with the measurement of absorbance set at 450 nm on the ARVO SX 1420 Multilabel Counter (Wallac). […]

[2] = target: T1, His-tagged human recombinant MTH1 protein (Homo sapiens, UniProt P36639); assay: MTH1 enzyme assay (PPiLight pyrophosphate detection); format: biochemical; conditions: for IC50: MTH1 2 nM; for Ki: Dixon plot; for manner of MTH1 inhibition: with respect to 8-oxo-dGTP and 2-OH-dATP, Lineweaver-Burk
T1 construct: His; purchased ProSpec
Experimental: An MTH1 enzyme assay was performed as described previously with minor modifications. Briefly, test compounds were dissolved in an assay buffer [100 mM Tris-acetate, 40 mM NaCl, 10 mM Mg(OAc)2, 0.005% Tween-20, and 2 mM dithiothreitol (DTT), pH 7.5] containing His-tagged human recombinant MTH1 protein (2 nM; ProSpec). […] Relative MTH1 activity was measured by monitoring the pyrophosphate (PPi) generated through MTH1-catalyzed nucleotide triphosphate hydrolysis. The luciferase-mediated luminescence signal was recorded for 30 min using a luminometer (Molecular Devices).

[3] = target: T2, MTH1 in intact HeLa cells (Homo sapiens, UniProt P36639); assay: Target engagement assay (CETSA); format: cell-based; conditions: 300 μM, 1 h
T2 construct: endogenous in cells; host or cells: HeLa
Experimental: To analyze the interaction between small-molecule ligands and their target proteins in intact cells, a cellular thermal shift assay (CETSA) was performed as described previously with minor modifications. […] After treatment, cells were collected with trypsin and resuspended in Tris-buffered saline (TBS). The cell suspension was aliquoted into four polymerase chain reaction (PCR) tubes and heated at 45, 50, 55, or 60 °C for 5 min. Subsequently, cells were lysed by three repeated freeze-thaw cycles using liquid nitrogen. Precipitated proteins were separated from the soluble fraction by centrifugation at 17,000 × g for 20 min. Soluble proteins collected in the supernatant were subjected to sodium dodecyl sulfate polyacrylamide gel electrophoresis (SDS-PAGE) and transferred to a polyvinylidene difluoride (PVDF) membrane (Millipore) for western blot analysis. […] Santa Cruz Biotechnology) and a horseradish peroxidase–labeled secondary antibody (Vector Laboratories) in sequence. They were then visualized with Fusion Solo S (Vilber Lourmat) using a Super Signal West Pico Chemiluminescence Substrate (Pierce). After detection of MTH1 by western blot, proteins on the membrane were visualized by staining with Coomassie brilliant blue (CBB).

[4] = tested on: 8-oxo-dG levels in DNA of HeLa cells; assay: 8-oxo-dG immunofluorescence; format: cell-based, human; conditions: 20 h, NPD compounds 100 μM, TH287 3 and 10 μM
Experimental: as §1, with “CO2. […]” for “CO2.”
The HeLa cells were seeded on glass coverslips in 12-well plates, cultured overnight, and treated with test compounds for the indicated time. For 8-oxo-dG, cells were fixed sequentially in 3.7% formalin for 10 min and methanol at -20 °C for 10 min, and then permeabilized in 0.5% Triton X-100 in PBS at room temperature for 5 min. After blocking with 0.5% BSA in PBS at room temperature for 30 min, cells were incubated sequentially with a primary antibody against 8-oxo-dG (5 µg/mL, MOG-020; Japan Institute for the Control of Aging) and with Alexa Fluor 488-conjugated secondary antibody (1:400, Life Technologies) under the same conditions. After a quick rinse in PBS, DNA was counterstained with 0.1 µg/mL 4′,6-diamidino-2-phenylindole (DAPI) in PBS at room temperature for 10 min. Images were analyzed with a fluorescence microscope (BX60, Olympus).

[5] = tested on: HeLa cells; assay: Cell cycle analysis (propidium iodide flow cytometry); format: cell-based, human; conditions: 24 h, HeLa cells (Ctrl 0.9%)
Experimental: The HeLa cells were seeded in 12-well plates and treated with test compounds for the indicated time. Cells were harvested, washed with PBS, and incubated in propidium iodide (PI) solution containing 50 µg/mL propidium iodide, 0.1% sodium citrate, 0.2% Nonidet P-40, and 0.25 µg/mL RNase A (Nacalai Tesque) for 30 mi n in the dark.
Cellular DNA content was analyzed by fluorescence-activated cell sorting using a Cytomics FC500 (Beckman Coulter). […]

[6] = substrate 2-OH-dATP (8.3 μM), read-out: IC50 of MTH1 inhibitory activity, 2-OH-dATP
[7] = substrate 2-OH-dATP, read-out: Ki for 2-OH-dATP
[8] = substrate 8-oxo-dGTP, read-out: Ki for 8-oxo-dGTP

Structure (SMILES) | cytotoxicity against cancer cell lines and KRAS-transformed fibroblast cells [1] | IC50 [2, 6] | Ki [2, 7] | Ki [2, 8] | manner of MTH1 inhibition [2] | thermal stabilization of cellular MTH1 [3] | accumulation of 8-oxo-dG [4] | sub-G1 cell population ([5]; 100 μM) | sub-G1 cell population ([5]; 200 μM) | IC50 ([2]; substrate 8-oxo-dGTP (13.2 μM), read-out: IC50 of MTH1 inhibitory activity, 8-oxo-dGTP)
CC1(C)CC2CC(C)(CN2c2ncnc3[nH]cnc23)C1 (stereo not shown) [NPD7155] | less potent cytotoxicity | 380 ± 160 nM | 180 ± 30 nM | 100 ± 40 nM | competitive | considerably stabilized | did not induce the significant accumulation | 4.9% | 9.0% | 
Nc1nc(NCCc2ccccc2)c2nc[nH]c2n1 [NPD9948] | less potent cytotoxicity | 500 ± 210 nM | 220 ± 40 nM | 130 ± 50 nM | competitive | considerably stabilized | did not induce the significant accumulation | 8.2% | 19% | 290 ± 50 nM
